ChEMBL document CHEMBL1150668, “Antimicrobial resveratrol tetramers from the stem bark of Vatica oblongifoliassp. oblongifolia” (2002)
Converted amounts (≈) assume the structure as drawn.

Columns and labels:
[1] = tested on: Staphylococcus aureus; assay: Antimicrobial activity against methicillin-resistant Staphylococcus aureus by microdilution method; assay type: functional
[2] = tested on: Mycolicibacterium smegmatis; assay: Antimicrobial activity against Mycobacterium smegmatis by microdilution method; assay type: functional

Structure (SMILES) | MIC [1] | MIC [2]
Oc1ccc([C@@H]2c3c(O)cc(O)cc3[C@@H]3c4c(cc(O)cc4[C@H]2[C@H]2c4cc(O)cc5c4[C@@H](c4cc(O)cc(O)c4[C@@H]2c2ccc(O)cc2)[C@H](c2ccc(O)cc2)O5)O[C@H]3c2ccc(O)cc2)cc1 [HOPEAPHENOL A] | 100 µg/mL (≈ 110 µM) | 50 µg/mL (≈ 55.1 µM)
Oc1ccc([C@H]2c3c(O)cc(O)cc3[C@@H]3c4c(cc(O)cc4[C@H]2[C@H]2c4cc(O)cc5c4[C@@H](c4cc(O)cc(O)c4[C@@H]2c2ccc(O)cc2)[C@H](c2ccc(O)cc2)O5)O[C@H]3c2ccc(O)cc2)cc1 [ISOHOPEAPHENOL A] | > 100 µg/mL | > 100 µg/mL
NNC(=O)c1ccncc1 [ISONIAZID] | – | 0.8 µg/mL (≈ 5.83 µM)
CN[C@H](CC(C)C)C(=O)N[C@H]1C(=O)N[C@@H](CC(N)=O)C(=O)N[C@H]2C(=O)N[C@H]3C(=O)N[C@H](C(=O)N[C@H](C(=O)O)c4cc(O)cc(O)c4-c4cc3ccc4O)[C@H](O)c3ccc(c(Cl)c3)Oc3cc2cc(c3O[C@@H]2O[C@H](CO)[C@@H](O)[C@H](O)[C@H]2O[C@H]2C[C@](C)(N)[C@H](O)[C@H](C)O2)Oc2ccc(cc2Cl)[C@H]1O [VANCOMYCIN] | 0.8 µg/mL (≈ 0.552 µM) | –
Oc1ccc([C@@H]2c3c(O)cc(O)cc3[C@@H]3c4c(cc(O)c5c4[C@@H]2[C@H](c2ccc(O)cc2)[C@H]5c2cc(O)cc4c2[C@H](c2cc(O)cc(O)c2)[C@@H](c2ccc(O)cc2)O4)O[C@H]3c2ccc(O)cc2)cc1 [VATICAPHENOL A] | 50 µg/mL (≈ 55.1 µM) | 25 µg/mL (≈ 27.6 µM)
